Assay results taken from PMC11769294, “(E)-1-(3-(3-Hydroxy-4-Methoxyphenyl)-1-(3,4,5-Trimethoxyphenyl)allyl)-1H-1,2,4-Triazole and Related Compounds: Their Synthesis and Biological Evaluation as Novel Antimitotic Agents Targeting Breast Cancer” (Pharmaceuticals, 2025).
Like-named read-outs stand apart in the source and are kept apart here.

Columns and labels:
[1] = test system: MCF-7 breast cancer cells; assay: alamarBlue cell viability assay; format: cell-based; conditions: Homo sapiens
Protocol: Figure 5 Preliminary cell viability data for Series 1: (A) compounds 22a–22g and chalcone 20b and Series 2: (B) compounds 23a–e and chalcone 20b in MCF-7 breast cancer cells. Cell proliferation of MCF-7 cells was determined with an alamarBlue assay (seeding density 2.5 × 10^4 cells/mL per well for 96-well plates). Compound concentrations of either 1 or 0.1 μM for 72 h were used to treat the cells (in triplicate) with control wells containing vehicle ethanol (1% v/v). The mean value ± SEM for three independent experiments is shown. The positive controls used are CA-4 and phenstatin (1.0 μM and 0.1 μM). Statistical analysis was performed using One-way ANOVA with the Sidak multiple comparison test (***, p < 0.001).
HL-60 cells were suspension cells and the seeding density for the viability assay was 25,000 cells/mL. MCF-7 cells (adherent) were cultured in Minimum Essential Media (MEM) with GlutaMAX™-I, supplemented with 1% (v/v) non-essential amino acids, 10% (v/v) fetal bovine serum (FBS), purchased from BD Biosciences (Edmund Halley Road, Oxford, UK), and 1% (v/v) penicillin/streptomycin 5000 U/mL. The MCF-7 cells used in the screening of the compounds during these experiments were mycoplasma-free. The seeding density of MCF-7 in the viability assay was 25,000 cells/mL and 50,000 cells/mL in the FACS assay. Normal breast cells (MCF-10A) (adherent) were cultured in Dulbecco’s Modified Eagle Medium: Nutrient Mixture F-12 (DMEM/F12; Gibco) supplemented with 5% horse serum (Invitrogen, Waltham, MA, USA), 20 ng/mL epidermal growth factor (Merck Millipore, Burlington, MA, USA), 0.5 μg/mL hydrocortisone (Sigma, Kanagawa, Japan), 100 ng/mL cholera toxin (Sigma), 10 μg/mL insulin (Sigma), and penicillin/streptomycin 5000 U/mL (1%) (Gibco, Waltham, MA, USA). […] MDA-MB-231 cells were cultured in Dulbecco’s Modified Eagle Medium, which was supplemented with 10% (v/v) fetal bovine serum (FBS) and 1% (v/v) penicillin/streptomycin 5000 U/mL. When not in use, all cells were kept in liquid nitrogen and frozen in a freezing media made of 90% FBS and 10% DMSO. All cells were grown in an atmosphere of 5% CO2/95% air in T75 culture flasks. The media was changed every 2–3 days and media was always prewarmed to 37 °C. All were sub-cultured every 3–4 days by trypsinization using TrypLE™ Express enzyme when confluence was reached to allow growth, prevent excessive cell death, and minimize the risk of infections derived by over-confluence. For the cell viability assay, the number of cells per milliliter was 25,000 cells/mL while the FACS assay utilized 50,000 cells/mL. Cells were maintained at 37 °C in 5% CO2 in a humidified incubator.
The biochemical assays were performed in triplicate and on at least three independent occasions to facilitate the determination of mean values. For the viability assay, cells were grown until 80% confluent. Adherent cells such as MCF-7, MDA-MB-231, and MCF-10A were trypsinized to detach them from the flask, counted as previously described, and seeded in 96 well plates with a seeding density of 25,000 cells /mL (200 µL of suspension in each well so that the final number of cells per well was 5000) and 1 × 10^4 cells/well seeding density for suspension HL-60 cells. Adherent cells were incubated for 24 h after being seeded in the 96 well plate and treated on the following day, while suspension cells were treated on the same day of the seeding. In both cases, the incubation time after the treatment with the drug was 72 h. After 68 h incubation, the AlamarBlue was added (20 µL in each well) and the incubation time was completed. After 72 h, the change in color was measured by spectrofluorimetry at an excitation wavelength of 544 nm and emission wavelength of 590 nm. AlamarBlue is a cell viability indicator containing a compound called resazurin. AlamarBlue is water soluble, stable in culture media, non-toxic, and is permeable through the cell membrane. […]

HL-60 cells = conditions: reported values; cited from earlier work
[2] = test system: MCF-7 breast cancer cells; conditions: cited from earlier work
[3] = test system: MDA-MB-231 breast cancer cells; conditions: reported values; cited from earlier work
[4] = test system: tubulin in MCF-7 breast cancer cells; assay: Immunofluorescence confocal microscopy of microtubules; format: cell-based, human; conditions: 16 h, 22b 10 μM, paclitaxel and phenstatin 1 μM
Protocol: Briefly, the MCF-7 cells were seeded at a density of 1 × 10^5 cells/mL on eight chamber glass slides (BD Biosciences). […] The cells were then washed in PBS, fixed for 20 min with 4% paraformaldehyde in PBS, and permeabilized in 0.5% Triton X-100. […] Images of the cells were obtained using Leica SP8 confocal microscopy (Wetzlar, Germany) with Leica application suite X software (Wetzlar, Germany). Experiments were performed on three independent occasions.
The micrograph images were obtained with Leica SP8 confocal microscopy utilizing Leica application suite X software. Representative confocal images of three separate experiments are shown. The scale bar indicates 25 μm.

MCF-7 cells = test system: MCF-7 cells; parameters: method as in PMID 33671674; conditions: 1 μM, cited from earlier work
[5] = test system: MCF-7 breast cancer cells; parameters: method as in PMID 33671674; conditions: cited from earlier work
[6] = test system: MDA-MB-231 breast cancer cells; parameters: method as in PMID 33671674; conditions: cited from earlier work
[7] = test system: purified bovine brain tubulin; parameters: method as in PMID 33671674; conditions: 10 μM; cited from earlier work
[8] = test system: K562 human chronic myelogenous leukemia cell line; parameters: method as in PMID 19837593; conditions: cited from earlier work
[9] = MCF7, MCF-7, 1 μM, 72 h, read-out: viable cells

Q: Which viability at 1 µM [1, 9] does the source give for `C(=C\C(c1ccncc1)n1ccnc1)/c1c2ccccc2cc2ccccc12` (stereo not shown) [Compound 33b, (E)-4-(3-(Anthracen-9-yl)-1-(1H-imidazol-1-yl)allyl)pyridine] here?
A: 92%

Q: Which results are given for `COc1ccc(C2CC(=O)c3cc(OC)c(OC)c(OC)c32)cc1O` (stereo not shown) [Compound 24a, 3-(3-Hydroxy-4-methoxyphenyl)-4,5,6-trimethoxy-2,3-dihydro-1H-inden-1-one, reference compound]?
A: viability at 0.1 µM ([1]; MCF7, MCF-7, 0.1 μM, 72 h, read-out: viable cells): 70%; viability at 1 µM [1, 9]: 35%

Q: What does the source list for `COc1ccc(/C=C\c2cc(OC)c(OC)c(OC)c2)cc1O` [CA-4, combretastatin CA-4]?
A: IC50 (HL-60 cells): 1.9 ± 0.5 nM; IC50 [2]: 4 nM; IC50 ([2]; reported values): 3.9 ± 0.32 nM; viability at 1 µM [1, 9]: 24%; IC50 [3]: 43 nM

Q: Which IC50 ([1]; MCF7, MCF-7, 72 h) does the source give for `COc1ccc(/C=C/C(=O)c2cc(OC)c(OC)c(OC)c2)cc1O` [Compound 20b, (E)-3-(3-hydroxy-4-methoxyphenyl)-1-(3,4,5-trimethoxyphenyl)prop-2-en-1-one, reference compound] here?
A: 67 ± 17 nM

Q: Which viability at 1 µM [1, 9] does the source give for `COc1cc(/C=C/C(c2cc(OC)c(OC)c(OC)c2)n2cncn2)cc(OC)c1OC` (stereo not shown) [Compound 22c, (E)-1-(1,3-Bis(3,4,5-trimethoxyphenyl)allyl)-1H-1,2,4-triazole] here?
A: 70%

Q: With `CC(=O)O[C@H]1C(=O)[C@@]2(C)[C@H]([C@H](OC(=O)c3ccccc3)[C@]3(O)C[C@H](OC(=O)[C@H](O)[C@@H](NC(=O)c4ccccc4)c4ccccc4)C(C)=C1C3(C)C)[C@]1(OC(C)=O)CO[C@@H]1C[C@@H]2O` [paclitaxel] as the compound, how does the “effect on microtubule network” value [4] read?
A: hyperpolymerization of tubulin

Q: For `COc1ccc(C(=O)c2cc(OC)c(OC)c(OC)c2)cc1O` [phenstatin], which “cells in G2/M phase” value (MCF-7 cells; 24 h) is on record?
A: 65%

Q: What about the “cells in G2/M phase” value (MCF-7 cells; 48 h) of the same compound?
A: 57%

Q: What about the “cells in G2/M phase” value (MCF-7 cells; 72 h) of the same compound?
A: 51%

Q: What about the “cells in apoptosis (sub-G1)” value (MCF-7 cells; 72 h) of the same compound?
A: 18%

Q: What about the IC50 [2] of the same compound?
A: 34 nM

Q: What about the “effect on microtubule network” value [4] of the same compound?
A: depolymerization of tubulin

Q: What about the viability at 1 µM ([1]; MCF7, 72 h, read-out: viable cells) of the same compound?
A: 30%

Q: And the total apoptosis ([5]; 0.1 μM)?
A: 36.1%

Q: What about the total apoptosis ([5]; 0.5 μM) of the same compound?
A: 46%

Q: And the total apoptosis ([6]; 0.1 μM)?
A: 16.6%

Q: What about the total apoptosis ([6]; 0.5 μM) of the same compound?
A: 17.9%

Q: What about the “reduction in the polymer mass vs vehicle” value [7] of the same compound?
A: 10 fold

Q: With `COc1ccc(/C=C/C(c2cc(OC)c(OC)c(OC)c2)n2cncn2)cc1OC` (stereo not shown) [Compound 22d, (E)-1-(3-(3,4-Dimethoxyphenyl)-1-(3,4,5-trimethoxyphenyl)allyl)-1H-1,2,4-triazole] as the compound, how does the viability at 1 µM [1, 9] read?
A: 74%

Q: With `COc1ccc(/C=C(\C)C(=O)c2cc(OC)c(OC)c(OC)c2)cc1O` [Compound 16a] as the compound, how does the IC50 [8] read?
A: 0.21 nM
